Our source for the IC50 and melting point values is patent US20060223874A1, “Heterocyclic reverse transcriptase inhibitors” (Roche Palo Alto LLC, priority 2005, published 2006).

One series concerns the target Wild Type HIV-RT (Human immunodeficiency virus type 1 group M subtype B, UniProt P03366). Briefly: HIV Reverse Transcriptase Assay: Inhibitor IC50 Determination. It counts as biochemical. To be noted: purified recombinant HIV-1 RT, poly(rA)/oligo(dT)16 template-primer, 37° C. for 30 min. As to the method: HIV Reverse Transcriptase Assay: Inhibitor IC50 Determination
HIV-1 RT assay was carried out in 96-well Millipore MultiScreen MADVNOB50 plates using purified recombinant enzyme and a poly(rA)/oligo(dT)16 template-primer in a total volume of 50 μL. The assay constituents were 50 mM Tris/HCl, 50 mM NaCl, 1 mM EDTA, 6 mM MgCl2, 5 μM dTTP, 0.15 μCi [^3H] dTTP, 5 μg/ml poly (rA) pre annealed to 2.5 μg/ml oligo (dT)16 and a range of inhibitor concentrations in a final concentration of 10% DMSO. Reactions were initiated by adding 4 nM HIV-1 RT and after incubation at 37° C. for 30 min, they were stopped by the addition of 50 μl ice cold 20% TCA and allowed to precipitate at 4° C. for 30 min. The precipitates were collected by applying vacuum to the plate and sequentially washing with 3×200 μl of 10% TCA and 2×200 μl 70% ethanol. Finally, the plates were dried and radioactivity counted in a Packard TopCounter after the addition of 25 μl scintillation fluid per well. IC50's were calculated by plotting % inhibition versus log10 inhibitor concentrations. (TABLE 2)

`COc1ccc(Cc2n[nH]c(=O)n2C)c(F)c1Oc1cc(Cl)cc(C#N)c1` [Compound I-1, 3-chloro-5-[2-fluoro-6-methoxy-3-(4-methyl-5-oxo-4,5-dihydro-1H-[1,2,4]triazol-3-ylmethyl)-phenoxy]-benzonitrile] displayed a melting point of 219.1 to 220.1 °C. On Wild Type HIV-RT, the IC50 came to 0.0456 µM.

For the molecule `COc1ccc(Cc2n[nH]c(=O)n2C)c(F)c1Oc1cc(C#N)cc(C(F)F)c1` [Compound I-2, 3-Difluoromethyl-5-[2-fluoro-6-methoxy-3-(4-methyl-5-oxo-4,5-dihydro-1H-[1,2,4]triazol-3-ylmethyl)-phenoxy]-benzonitrile], the IC50 on Wild Type HIV-RT turned out to be 0.0129 µM.
